Test results taken from patent publication US12371658B2, “Three-dimensional microtissues with integrated mechanical loading” (Carnegie Mellon University, priority 2017, dated 2025).

Tested on: cardiac MIFIs (HUES9-CMs with 10% FBs)
Assay: side-on contractility assay of cardiac MIFIs with drug dosing (twitch force, beat frequency)
Type: cell-based, human
Conditions: for beat frequency relative to initial beat frequency: normalized to native beat frequency
Description: MIFIs were removed from wells using forceps and were transferred to a 35 mm petri dish filled with 37° C. Tyrode's solution (1.192 g HEPES, 0.203 g MgCl2, 0.403 g KCl, 7.889 g NaCl, 0.04 g NaH2PO4, 0.901 g C6H12O6, and 0.265 g CaCl2) per liter of distilled water, pH 7.4). MIFIs were anchored by placing the wide base of the strip into a slit in a PDMS block glued to the bottom of the stimulation dish. The Tyrode's bath was maintained between 30° and 37° C. using a heated stage regulated by an in house Lab VIEW program. Videos of samples were taken using a NikonTM […] DSLR camera mounted on a NikonTM SMZ1500 stereomicroscope. Samples were paced from 2-10 Hz using parallel platinum electrodes placed 2 cm apart and immersed in Tyrode's solution. Samples were stimulated with 40V using a 10 ms square pulse wave. Shorter pulse durations can also be used (e.g., 2 ms, 4 ms, 6 ms, etc.). Carbachol and isoprenaline were mixed to stock concentrations of 5 mM in 1× Tyrode's solution. […] Caffeine was dissolved directly in Tyrode's to make a stock solution of 20 mM. […] Finite element modeling of bending PDMS strips was used to create lookup tables for strips ranging in thickness from 125 to 154 μm. FIGS. 9A-D show modeling data 930 for strips 900, 910, and 920. The elastic strip (e.g., strip 112) was modeled as 3D deformable extruded solid, with extruded thickness varying between 125 and 154 μm. The elastic strip was considered as linearly elastic, isotropic and incompressible material, with Young's modulus equal to 3.09 MPa according to elastic modulus measurements. The section of the elastic strip was considered as solid homogeneous. The force-driven bending simulation was designed to mimic the experimental procedure. One static general analysis step was used where the elastic strip was deformed by application of equal contractile force in three parallel axial connectors placed in the regions where the tissue was attached during the experiment, so that the total force would equal the sum of the contractile force of the three connectors. […] Additional boundary conditions were imposed based on geometrical symmetry. […] Finally, the finite element mesh was composed of 20-node quadratic, hybrid, reduced integration brick elements. From this model, the change in tissue length could then be used to calculate the force necessary to bend the strips to these conformations. Length changes of contracting MIFIs were tracked and resulting length data was used to calculate the corresponding force based on tissue length and strip parameters (e.g., thickness, width, length, elastic modulus, and shape). […] By tracking the change in tissue length of beating MIFIs, we calculated force generated by these tissues using force lookup tables. MIFIs were removed from wells, one side of the strip was placed in a slit in a PDMS block to anchor the MIFI for side-on viewing, and the construct was submerged in Tyrode's and placed between two parallel platinum electrodes for later stimulation by assay device 1300.

[1] = Day 14, 10% FB MIFI, carbachol dosing, concentration not given
[2] = Day 14, 10% FB MIFI, isoprenaline at 500 nM and 5 μM

In the case of `C[N+](C)(C)CCOC(N)=O` [carbachol], the “effect on spontaneous beat frequency” value [1] is reported as “reduced the spontaneous beat frequency”, the “effect on twitch force” value [1] is reported as “surprisingly little impact on twitch force” and the “twitch force relative to twitch force of synchronous constructs” value (Day 14 arrhythmic construct, carbachol 500 nM, 5 μM, 50 µM, spontaneous beating) is reported as about 30%. For the same compound, the “effect on spontaneous beat frequency of arrhythmic construct” value (Day 14 arrhythmic construct, increasing carbachol doses 500 nM, 5 μM, 50 µM) was “improvement in the spontaneous beat frequency”, the “fold stronger twitch contraction” value (arrhythmic construct, 2 Hz pacing coupled with 5 μM carbachol) was 2.5 × and the “fold stronger twitch contraction” value (arrhythmic construct, 2 Hz pacing coupled with 50 μM carbachol) was 2.8 ×. The “combinatorial effect of drug treatment with electric pacing on twitch force” value (arrhythmic construct, carbachol 5 μM and 50 μM, 2 Hz pacing) was “significantly higher twitch forces”.

`Cn1c(=O)c2c(ncn2C)n(C)c1=O` [caffeine] was tested, and the “beat frequency relative to initial BPM” value (5 mM caffeine) was 1.59 ×, the “effect on twitch force” value (Day 14, 10% FB MIFI, 55 mM caffeine) was “minimal impact on the twitch force” and the “effect on spontaneous beat frequency” value (Day 14, 10% FB MIFI, 55 mM caffeine, after isoprenaline wash-out) was “increased the spontaneous beat frequency”.

`CC(C)NCC(O)c1ccc(O)c(O)c1` (centres unmarked) [isoprenaline] was tested, and the “beat frequency relative to initial beat frequency” value (500 nM isoprenaline) was 1.27 ×, the “beat frequency relative to initial beat frequency” value (50 μM isoprenaline) was 1.48 × and the “twitch force as percent of initial twitch force” value (Day 14, 10% FB MIFI, 500 nM isoprenaline) was about 80%. It also gave a twitch force (Day 14, 10% FB MIFI, 500 nM isoprenaline, 2 Hz paced) of 2.81 μN, a twitch force (Day 14, 10% FB MIFI, 500 nM isoprenaline, spontaneous beating) of 2.85 μN and a twitch force (Day 14, 10% FB MIFI, beating spontaneously in 5 M isoprenaline) of about 4.0 μN. The “twitch force as percent of initial twitch strength” value (Day 14, 10% FB MIFI, isoprenaline) was about 50%, the “effect on native beat frequency” value [2] was “intended stimulatory effect” and the “effect on twitch force” value [2] was “did not noticeably affect the twitch force”. The “ability to electrically pace the constructs” value (Day 14, 10% FB MIFI, isoprenaline at 500 nM and 5 μM, 2 Hz pacing) was “did not interrupt the ability to electrically pace the constructs”, the twitch force (Day 14, 10% FB MIFI, isoprenaline, 2 Hz paced) was 2.15 μN and the twitch force (Day 14, 10% FB MIFI, isoprenaline, spontaneous beating) was 1.78 μN.

In the case of `CNC[C@H](O)c1ccc(O)c(O)c1` [epinephrine], the “twitch force as percent of initial twitch force” value (5 μM epinephrine, electrical pacing 2 Hz) is reported as 85%, the “twitch force as percent of initial twitch force” value (5 μM epinephrine, spontaneous beating) is reported as 66% and the “twitch force as percent of initial twitch force” value (50 μM epinephrine, electrical pacing 2 Hz) is reported as 80%. For the same compound, the “twitch force as percent of initial twitch force” value (50 μM epinephrine, spontaneous beating) was 61%, the twitch force (Day 14, 10% FB MIFI, 500 nM epinephrine, spontaneous beating) was 5.49 μN and the “effect on twitch force” value (Day 14, 10% FB MIFI, epinephrine 500 nM to 50 μM) was “dose-dependent decrease in twitch force”. The “beat frequency relative to initial BPM” value (epinephrine, first of two values, dose not given) was 1.42 ×.
